Results reported in patent US11731946B2, “Broad spectrum antivirulence, anti-persistence compounds” (priority 2017, dated 2023).

What was measured:
MvfR regulon [1] = assay: pqsA gene expression (pqsA-GFP reporter); type: cell-based, P. aeruginosa; settings: for activity at 10 µM: read-out: pqsA @10 uM (%), compound at 10 uM; for activity at 50 µM: read-out: pqsA @50 uM (%), compound at 50 uM
Method: Experiments were performed to identify compounds that inhibit the MvfR regulon without altering growth, ultimately attenuating P. aeruginosa infection. MvfR is a LysR-type transcriptional regulator that directs HAQs synthesis, including that of its ligands, 4-hydroxy-2-heptylquinoline (HHQ) and 3,4-dihydroxy-2-heptylquinoline (PQS).
MvfR promotes the production of HAQs by binding to and activating the pqs operon, which encodes enzymes for HAQ synthesis. Anthranilic acid (AA), derived from the phnAB, kynABU, and trpEG pathways, is the precursor for HAQs. pqsA encodes an anthranilate-coenzyme A ligase, which activates anthranilic acid and catalyzes the first committed step to HAQ production. The exact roles of PqsB and PqsC are unknown, though both show homology to acyl-carrier-proteins and both are required for HHQ and PQS production. […] The final gene of the operon, pqsE encodes for a putative hydrolase, and while the protein is not required for the synthesis of HAQs, it is necessary for pyocyanin production.
Nanomolar levels of most of these MvfR antagonists impeded the activity of MvfR and in consequence the MvfR virulence regulated ACRP functions, including: (1) the production of the important pro-acute P. aeruginosa virulence factor pyocyanin (see e.g., FIG. 9A) the efficacy of two of these potent inhibitors, D57 and D88, was also confirmed by testing many different MDR P. aeruginosa clinical isolates (see e.g., FIG. 11A-11B), providing further confidence of their inhibitory potency; (2) the expression of the genes that encode the enzymes catalyzing the synthesis of both pro-acute and pro-persistence MvfR-regulated virulence molecules, 4-hydroxyl-2-alkyl-quinolines (HAQs) and 2-aminoacetophenon (2-AA), as assessed by pqsAGFP reporter gene expression (see e.g., FIG. 9B) and HAQ production showing the levels of MvfR inducers/ligands HHQ and PQS as well as of the molecules critical for biofilm and Antibiotic tolerant/persiters cells formation HQNO and 2-AA (see e.g., FIG. 9C); (3) AT/P cell formation (see e.g., FIGS. 11A, 12A); (4) biofilm formation (see e.g., FIG. 12B); and (5) biofilm dispersal of preformed biofilm by potentiating antibiotic action (see e.g., FIG. 11B).

MvfR regulon [2] = assay: Quantification of pyocyanin (OD520nm of chloroform-extracted cultures); type: cell-based, P. aeruginosa; settings: for activity at 1 µM: read-out: pyocyanin @1 uM (%), compound at 1 uM; for activity at 10 µM: read-out: pyocyanin @10 uM (%), compound at 10 uM; for activity at 50 µM: read-out: pyocyanin @50 uM (%), compound at 50 uM; for pyocyanin @50 uM (%): compound at 50 uM
[3] = Pseudomonas aeruginosa, read-out: IC50 pyocyanin (μM)

| SMILES | activity at 50 µM (MvfR regulon [1]; Pseudomonas aeruginosa) [%] | activity at 50 µM (MvfR regulon [2]; Pseudomonas aeruginosa) [%] | other results |
| --- | --- | --- | --- |
| N#Cc1ccc(NC(=O)C[C@H](Nc2ccc(Oc3ccccc3)cc2)C(F)(F)F)cc1 (racemic) [Compound 108] | 88.4 | 91 | activity at 10 µM (MvfR regulon [1]; Pseudomonas aeruginosa): 87%; activity at 1 µM (MvfR regulon [2]; Pseudomonas aeruginosa): 91.9%; activity at 10 µM (MvfR regulon [2]; Pseudomonas aeruginosa): 76.8% |
| O=C(Nc1ccc(Oc2ccccc2)cc1)[C@@H](F)C(=O)Nc1ccc(C(F)(F)F)cc1 (racemic) [Compound 115] | 1.75 | 7.08 | activity at 10 µM (MvfR regulon [1]; Pseudomonas aeruginosa): 1.05%; activity at 1 µM (MvfR regulon [2]; Pseudomonas aeruginosa): 27.1%; activity at 10 µM (MvfR regulon [2]; Pseudomonas aeruginosa): 11.4% |
| Cc1cc(F)ccc1NC(C)C(=O)Nc1ccc(C#N)cc1 (stereo not shown) [Compound 13] | – | – | pqsA @50 uM (%) (MvfR regulon [1]; compound at 50 uM, listed as D1): 88.58%; pyocyanin @50 uM (%) (MvfR regulon [2]; listed as D1): 101.56% |
| Cc1cc(F)ccc1NCC(=O)Nc1ccccc1Br [Compound 14] | 96.2 | 101 | – |
| CCc1ccccc1NCC(=O)Nc1ccc(C#N)cc1 [Compound 15] | 92 | 97.3 | – |
| N#Cc1ccc(NC(=O)CNc2ccc(F)cc2F)cc1 [Compound 16] | 56.3 | 89.1 | – |
| Cc1cc(F)ccc1NCC(=O)Nc1ccc(N2CCOCC2)cc1 [Compound 17] | 99.8 | 102 | – |
| N#Cc1ccc(NC(=O)CNc2cccc(F)c2)cc1 [Compound 18] | 68 | 91.3 | – |
| Cc1cc(F)ccc1NCC(=O)Nc1ccc(Br)cc1C [Compound 19] | 70 | 88.7 | – |
| CC(=O)c1ccc(NC(=O)CNc2ccc(F)cc2C)cc1 [Compound 20] | 97.7 | 102 | – |
| Cc1cc(F)ccc1NCC(=O)Nc1ccc(N2CCCC2=O)cc1 [Compound 21] | 105 | 107 | – |
| Cc1cc(F)ccc1NCC(=O)Nc1c(F)cccc1F [Compound 22] | 89.2 | 89.9 | – |
| CNC(=O)NC(=O)CNc1ccc(F)cc1C [Compound 23] | 97 | 101 | – |
| Cc1ccc(NC(=O)CNc2ccc(F)cc2C)c(Br)c1 [Compound 24] | 92.3 | 108 | – |
| Cc1cc(F)ccc1NCC(=O)Nc1cccc(C#N)c1 [Compound 25] | 90.2 | 100 | – |
| Cc1cc(F)ccc1NCC(=O)Nc1cccc([N+](=O)[O-])c1 [Compound 26] | 76.5 | 85.2 | – |
| COc1ccc(NC(=O)CNc2ccc(F)cc2C)cc1 [Compound 27] | 86.9 | 102 | – |
| N#Cc1ccc(NC(=O)CNc2ccc(Cl)cc2)cc1 [Compound 28] | 17.7 | 43.2 | IC50 (MvfR regulon [1]; Pseudomonas aeruginosa, read-out: IC50 pqsA (μM)): 24.6 µM; IC50 (MvfR regulon [2]; [3]): 20.4 µM |
| Cc1cc(F)ccc1NCC(=O)NCC(F)(F)F [Compound 29] | 70 | 110 | – |
| Cc1ccc(F)cc1NCC(=O)Nc1ccc(C#N)cc1 [Compound 30] | 28.1 | 68.5 | – |
| Cc1cc(F)ccc1NCC(=O)Nc1ccc(C(=O)N(C)C)cc1 [Compound 31] | 99.8 | 109 | – |
| Cc1ccc(NCC(=O)N(C)c2ccccc2)c(C)c1 [Compound 32] | 88 | 111 | – |
| Cc1ccc(NC(=O)CNc2ccc(F)cc2C)c(C)c1 [Compound 33] | 87.3 | 112 | – |
| Cc1cc(F)ccc1NCC(=O)Nc1cccc(Cl)c1 [Compound 34] | 70.9 | 96.1 | – |

| SMILES | activity at 50 µM (MvfR regulon [1]; Pseudomonas aeruginosa) [%] | activity at 50 µM (MvfR regulon [2]; Pseudomonas aeruginosa) [%] | other results |
| --- | --- | --- | --- |
| Cc1cc(F)ccc1NCC(=O)NC1CC1 [Compound 35] | 92.5 | 107 | – |
| N#Cc1ccc(NCC(=O)Nc2ccc(F)cc2)cc1 [Compound 36] | 25.5 | 59.1 | – |
| N#Cc1ccc(NC(=O)CNc2ccccc2F)cc1 [Compound 37] | 84 | 97.3 | – |
| Cc1ccccc1NCC(=O)Nc1ccccc1 [Compound 38] | 95.4 | 102 | – |
| CC(=O)Nc1cccc(NCC(=O)Nc2ccc(C#N)cc2)c1C [Compound 39] | 99.5 | 93.4 | – |
| Cc1ccc(NCC(=O)Nc2ccc(C#N)cc2)cc1F [Compound 40] | 42 | 59.5 | – |
| Cc1ccc(NCC(=O)Nc2ccccc2)c(C)c1 [Compound 41] | 92.8 | 94.5 | – |
| CC(=O)c1ccccc1NC(=O)CNc1ccc(F)cc1C [Compound 42] | 94.2 | 91.4 | – |
| Cc1cc(NC(=O)CNc2ccc(F)cc2C)ccc1Br [Compound 43] | 47 | 68.5 | – |
| COc1cccc(NC(=O)CNc2ccc(F)cc2C)c1 [Compound 44] | 93.7 | 92.2 | – |
| CC(C)c1ccc(NCC(=O)Nc2ccc(C#N)cc2)cc1 [Compound 45] | 52.8 | 59.1 | – |
| N#Cc1ccc(NC(=O)CC(=O)Nc2ccccc2Br)cc1 [Compound 55] | – | 86.3 | activity at 10 µM (MvfR regulon [1]; Pseudomonas aeruginosa): 94%; activity at 1 µM (MvfR regulon [2]; Pseudomonas aeruginosa): 99%; activity at 10 µM (MvfR regulon [2]; Pseudomonas aeruginosa): 70.7% |
| N#Cc1ccc(NC(=O)CC(=O)Nc2cccc(Br)c2)cc1 [Compound 56] | – | 17.2 | activity at 10 µM (MvfR regulon [1]; Pseudomonas aeruginosa): 64.2%; activity at 1 µM (MvfR regulon [2]; Pseudomonas aeruginosa): 79.9%; activity at 10 µM (MvfR regulon [2]; Pseudomonas aeruginosa): 41.4% |
| N#Cc1ccc(NC(=O)CC(=O)Nc2ccc([N+](=O)[O-])cc2)cc1 [Compound 66] | – | – | activity at 10 µM (MvfR regulon [1]; Pseudomonas aeruginosa): 1.51%; pyocyanin @1 uM (%) (MvfR regulon [2]; compound at 1 uM, listed as D51P): 61.28%; pyocyanin @10 uM (%) (MvfR regulon [2]; compound at 10 uM, listed as D51P): 24.86%; pyocyanin @50 uM (%) (MvfR regulon [2]; listed as D51P): 4.00%; IC50 (MvfR regulon [2]; read-out: IC50 pyocyanin): 0.84 µM |
| O=C(CC(=O)Nc1ccc(Oc2ccccc2)cc1)Nc1ccc(I)cc1 [Compound 74] | 81.2 | 71.8 | activity at 10 µM (MvfR regulon [1]; Pseudomonas aeruginosa): 86% |
| Nc1cc([N+](=O)[O-])ccc1NC(=O)CC(=O)Nc1ccc(Oc2ccccc2)cc1 [Compound 75] | – | 6.13 | activity at 10 µM (MvfR regulon [1]; Pseudomonas aeruginosa): 9.83% |
| O=C(CC(=O)Nc1ccc(Oc2ccccc2)cc1)Nc1ccc(Br)cc1 [Compound 79] | 60.5 | 47.7 | activity at 10 µM (MvfR regulon [1]; Pseudomonas aeruginosa): 64.5% |
| O=C(CC(=O)Nc1ccc(Oc2ccccc2)cc1)Nc1ccc(Cl)cc1 [Compound 82] | – | 26 | activity at 10 µM (MvfR regulon [1]; Pseudomonas aeruginosa): 28.8%; IC50 (MvfR regulon [2]; [3]): 0.09 µM; activity at 1 µM (MvfR regulon [2]; Pseudomonas aeruginosa): 40.3%; activity at 10 µM (MvfR regulon [2]; Pseudomonas aeruginosa): 39.9% |
| O=C(CC(=O)Nc1ccc(Oc2ccccc2)cc1)Nc1ccc(F)cc1 [Compound 83] | – | 33.5 | activity at 10 µM (MvfR regulon [1]; Pseudomonas aeruginosa): 27.7%; IC50 (MvfR regulon [2]; [3]): 0.83 µM; activity at 1 µM (MvfR regulon [2]; Pseudomonas aeruginosa): 44.7%; activity at 10 µM (MvfR regulon [2]; Pseudomonas aeruginosa): 41.3% |
| N#Cc1ccc(NC(=O)CC(=O)Nc2ccc(C(F)(F)F)cc2)cc1 [Compound 84] | – | 6.1 | activity at 10 µM (MvfR regulon [1]; Pseudomonas aeruginosa): 6.98%; IC50 (MvfR regulon [2]; [3]): 0.45 µM; activity at 1 µM (MvfR regulon [2]; Pseudomonas aeruginosa): 46.8%; activity at 10 µM (MvfR regulon [2]; Pseudomonas aeruginosa): 6.98% |
| Cc1cccc(NC(=O)CC(=O)Nc2ccc(C#N)cc2)c1 [Compound 85] | – | 49.7 | activity at 10 µM (MvfR regulon [1]; Pseudomonas aeruginosa): 84.8%; activity at 1 µM (MvfR regulon [2]; Pseudomonas aeruginosa): 94%; activity at 10 µM (MvfR regulon [2]; Pseudomonas aeruginosa): 75.3% |
| N#Cc1ccc(NC(=O)CC(=O)Nc2cccc(Cl)c2)cc1 [Compound 86] | – | 12.5 | activity at 10 µM (MvfR regulon [1]; Pseudomonas aeruginosa): 59.8%; IC50 (MvfR regulon [2]; [3]): 1.54 µM; activity at 1 µM (MvfR regulon [2]; Pseudomonas aeruginosa): 83.2%; activity at 10 µM (MvfR regulon [2]; Pseudomonas aeruginosa): 45.4% |
| N#Cc1ccc(NC(=O)CC(=O)Nc2cccc(F)c2)cc1 [Compound 87] | – | 30.2 | activity at 10 µM (MvfR regulon [1]; Pseudomonas aeruginosa): 77.8%; activity at 1 µM (MvfR regulon [2]; Pseudomonas aeruginosa): 94.6%; activity at 10 µM (MvfR regulon [2]; Pseudomonas aeruginosa): 65.5% |
